Structures are written as SMILES. Activity calls are given as the source filed them.

For data set [1], the system named is Rattus norvegicus. Kind of data set: Inhibition of hypertrophic response in Wistar rat model of monocrotaline pulmonary arterial hypertension assessed as reduction of MCT-induced increase in small pulmonary artery wall thickness at 5 mg/kg, po for 3 weeks. The data set is classed as functional, organism-based.
Data set [2] is described as follows: AUC (0 to infinity) in Sprague-Dawley rat at 5 mg/kg, po by LC-MS/MS analysis. On the set-up: dose 5 mg/kg, time infinity, route oral. It counts as ADME, organism-based. Particulars: in vivo.
Data set [3] addresses 3',5'-cyclic-AMP phosphodiesterase 4D (Homo sapiens, UniProt Q08499). Briefly: Inhibition of PDE4D2 (86 to 413 residues) (unknown origin) expressed in Escherichia coli BL21(DE3) using [3H]cAMP or [3H]cGMP as substrate after 15 mins by liquid scintillation counting method.
Data set [4] is described as follows: AUC (0 to t) in Sprague-Dawley rat at 5 mg/kg, po by LC-MS/MS analysis. The data set is classed as ADME, organism-based. Particulars: in vivo.
Data set [5] is described as follows: Half life in Sprague-Dawley rat at 5 mg/kg, po by LC-MS/MS analysis. It counts as ADME, organism-based. As to conditions: in vivo.
Data set [6] can be described thus: Cmax in Sprague-Dawley rat at […], iv by LC-MS/MS analysis. It counts as ADME, organism-based. On the set-up: dose 2.5 mg/kg, route intravenous. Particulars: in vivo.
Another data set addresses T1, Cytochrome P450 2C8 (Homo sapiens, UniProt P10632).
T1 sequence (P10632 whole entry): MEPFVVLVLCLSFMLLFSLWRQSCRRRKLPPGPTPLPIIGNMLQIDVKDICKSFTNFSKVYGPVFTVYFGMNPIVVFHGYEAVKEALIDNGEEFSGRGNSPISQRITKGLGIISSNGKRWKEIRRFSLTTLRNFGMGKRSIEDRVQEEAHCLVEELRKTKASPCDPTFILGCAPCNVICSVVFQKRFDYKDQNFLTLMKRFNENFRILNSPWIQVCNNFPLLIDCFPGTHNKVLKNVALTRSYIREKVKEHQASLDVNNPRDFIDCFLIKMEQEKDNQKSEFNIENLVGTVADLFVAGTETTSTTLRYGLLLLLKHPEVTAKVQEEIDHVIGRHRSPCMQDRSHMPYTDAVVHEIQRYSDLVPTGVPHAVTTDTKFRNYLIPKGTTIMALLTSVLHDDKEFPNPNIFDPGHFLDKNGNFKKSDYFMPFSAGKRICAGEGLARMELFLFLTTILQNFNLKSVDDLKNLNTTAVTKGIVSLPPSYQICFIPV
Briefly: Inhibition of CYP2C8 in human microsomes in presence of NADPH. The data set is classed as ADME.

The subject of data set [7] is Rattus norvegicus. Kind of data set: Toxicity in Sprague-Dawley rat assessed as overt toxicity up to 300 mg/kg, po daily for 2 weeks. The data set is classed as organism-based. As to conditions: in vivo, 336 h.
Data set [8] can be described thus: Half life in rat liver microsomes at 0.5 uM. It counts as ADME, microsome. Background: Liver microsomes are vesicles of endoplasmic reticulum, rich in cytochrome P450 enzymes.
Data set [9] deals with Rattus norvegicus. Kind of data set: Toxicity in Sprague-Dawley rat assessed as effect on body weight up to 300 mg/kg, po daily for 2 weeks. The data set is classed as organism-based. As to conditions: in vivo, 336 h.
Another data set concerns the target Cytochrome P450 3A4 (Homo sapiens, UniProt P08684). Kind of data set: Inhibition of CYP3A4 in human microsomes in presence of NADPH. It counts as ADME.
Data set [10] has as its target cGMP-dependent 3',5'-cyclic phosphodiesterase (Homo sapiens, UniProt O00408). Briefly: Inhibition of PDE2A (580 to 919 residues) (unknown origin) expressed in Escherichia coli BL21(DE3) using [3H]cGMP or [3H]cAMP as substrate after 15 mins by liquid scintillation counting method.
Data set [11] can be described thus: Hepatic clearance in rat liver microsomes at 0.5 uM. It counts as ADME, microsome.
Data set [12] addresses Rod cGMP-specific 3',5'-cyclic phosphodiesterase subunit alpha (Homo sapiens, UniProt P16499). Kind of data set: Inhibition of PDE6A (484 to 817 residues) (unknown origin) expressed in Escherichia coli BL21(DE3) using [3H]cGMP or [3H]cAMP as substrate after 15 mins by liquid scintillation counting method.

Chain of 3',5'-cyclic-AMP phosphodiesterase 4D (Q08499 whole entry, the tested form may be a part): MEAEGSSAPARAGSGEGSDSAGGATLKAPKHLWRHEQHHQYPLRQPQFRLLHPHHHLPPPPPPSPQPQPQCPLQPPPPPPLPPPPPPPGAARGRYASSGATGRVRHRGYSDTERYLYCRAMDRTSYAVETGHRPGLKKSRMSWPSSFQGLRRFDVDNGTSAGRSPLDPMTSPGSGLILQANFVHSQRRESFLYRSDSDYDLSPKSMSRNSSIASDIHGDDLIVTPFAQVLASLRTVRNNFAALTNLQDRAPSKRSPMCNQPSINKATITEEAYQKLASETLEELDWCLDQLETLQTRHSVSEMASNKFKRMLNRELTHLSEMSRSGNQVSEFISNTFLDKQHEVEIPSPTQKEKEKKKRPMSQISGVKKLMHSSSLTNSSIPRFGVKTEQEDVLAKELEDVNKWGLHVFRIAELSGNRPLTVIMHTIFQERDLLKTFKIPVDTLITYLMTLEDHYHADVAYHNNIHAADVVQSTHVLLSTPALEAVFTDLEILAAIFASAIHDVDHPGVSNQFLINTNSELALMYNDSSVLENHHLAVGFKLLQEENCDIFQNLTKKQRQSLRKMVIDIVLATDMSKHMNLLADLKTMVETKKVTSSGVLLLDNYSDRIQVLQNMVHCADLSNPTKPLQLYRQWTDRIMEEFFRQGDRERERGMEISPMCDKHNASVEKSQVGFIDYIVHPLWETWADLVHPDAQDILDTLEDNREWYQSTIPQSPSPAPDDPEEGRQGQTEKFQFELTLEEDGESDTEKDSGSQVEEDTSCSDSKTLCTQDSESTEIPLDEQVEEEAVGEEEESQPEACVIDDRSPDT
Chain of Rod cGMP-specific 3',5'-cyclic phosphodiesterase subunit alpha (P16499 whole entry, the tested form may be a part): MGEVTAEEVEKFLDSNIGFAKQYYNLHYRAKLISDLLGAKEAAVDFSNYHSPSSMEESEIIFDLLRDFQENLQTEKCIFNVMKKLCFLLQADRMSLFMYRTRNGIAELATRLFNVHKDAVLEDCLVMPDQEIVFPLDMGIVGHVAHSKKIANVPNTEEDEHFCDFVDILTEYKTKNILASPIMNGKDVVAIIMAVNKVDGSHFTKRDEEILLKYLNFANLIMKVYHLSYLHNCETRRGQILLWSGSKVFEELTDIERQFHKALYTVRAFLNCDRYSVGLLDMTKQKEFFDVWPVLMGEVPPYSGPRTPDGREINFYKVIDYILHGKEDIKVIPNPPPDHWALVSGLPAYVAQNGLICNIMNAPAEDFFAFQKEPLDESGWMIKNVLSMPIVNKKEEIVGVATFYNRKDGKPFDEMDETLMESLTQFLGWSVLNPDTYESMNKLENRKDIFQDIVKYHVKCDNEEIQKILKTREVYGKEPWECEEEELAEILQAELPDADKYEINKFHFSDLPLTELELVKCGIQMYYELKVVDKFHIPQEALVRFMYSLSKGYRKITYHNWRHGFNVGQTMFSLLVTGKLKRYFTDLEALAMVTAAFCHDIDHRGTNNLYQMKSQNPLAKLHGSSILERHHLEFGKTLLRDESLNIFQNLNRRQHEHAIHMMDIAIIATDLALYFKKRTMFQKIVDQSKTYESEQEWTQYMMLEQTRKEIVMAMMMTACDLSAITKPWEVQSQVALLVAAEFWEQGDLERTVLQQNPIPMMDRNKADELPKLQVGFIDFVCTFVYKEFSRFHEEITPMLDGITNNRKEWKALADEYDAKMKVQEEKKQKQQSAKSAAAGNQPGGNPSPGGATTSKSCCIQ
Chain of cGMP-dependent 3',5'-cyclic phosphodiesterase (O00408 whole entry, the tested form may be a part): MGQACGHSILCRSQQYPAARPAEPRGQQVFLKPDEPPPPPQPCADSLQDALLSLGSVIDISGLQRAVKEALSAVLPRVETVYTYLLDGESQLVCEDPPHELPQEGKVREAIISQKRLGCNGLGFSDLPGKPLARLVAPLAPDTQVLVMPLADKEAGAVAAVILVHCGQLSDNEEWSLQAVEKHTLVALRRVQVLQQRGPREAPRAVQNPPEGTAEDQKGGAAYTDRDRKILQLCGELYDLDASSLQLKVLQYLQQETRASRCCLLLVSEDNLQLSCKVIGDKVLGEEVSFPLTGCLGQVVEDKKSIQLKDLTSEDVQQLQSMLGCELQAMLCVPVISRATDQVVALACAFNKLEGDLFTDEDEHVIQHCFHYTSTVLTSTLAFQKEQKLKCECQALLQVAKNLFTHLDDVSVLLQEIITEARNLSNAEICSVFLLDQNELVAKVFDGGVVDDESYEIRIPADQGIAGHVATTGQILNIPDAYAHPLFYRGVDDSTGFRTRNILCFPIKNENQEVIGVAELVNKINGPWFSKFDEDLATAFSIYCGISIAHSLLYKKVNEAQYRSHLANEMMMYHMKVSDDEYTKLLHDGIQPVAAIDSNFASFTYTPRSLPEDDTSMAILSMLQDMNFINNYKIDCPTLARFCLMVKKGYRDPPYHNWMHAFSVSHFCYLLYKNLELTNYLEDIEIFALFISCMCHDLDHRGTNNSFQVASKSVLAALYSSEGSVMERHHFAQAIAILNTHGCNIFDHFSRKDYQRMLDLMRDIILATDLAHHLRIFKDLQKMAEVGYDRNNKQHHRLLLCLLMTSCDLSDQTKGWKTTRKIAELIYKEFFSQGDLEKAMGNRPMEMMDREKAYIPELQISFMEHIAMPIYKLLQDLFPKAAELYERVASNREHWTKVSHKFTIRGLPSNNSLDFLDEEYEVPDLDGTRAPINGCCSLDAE
Chain of Cytochrome P450 3A4 (P08684 whole entry, the tested form may be a part): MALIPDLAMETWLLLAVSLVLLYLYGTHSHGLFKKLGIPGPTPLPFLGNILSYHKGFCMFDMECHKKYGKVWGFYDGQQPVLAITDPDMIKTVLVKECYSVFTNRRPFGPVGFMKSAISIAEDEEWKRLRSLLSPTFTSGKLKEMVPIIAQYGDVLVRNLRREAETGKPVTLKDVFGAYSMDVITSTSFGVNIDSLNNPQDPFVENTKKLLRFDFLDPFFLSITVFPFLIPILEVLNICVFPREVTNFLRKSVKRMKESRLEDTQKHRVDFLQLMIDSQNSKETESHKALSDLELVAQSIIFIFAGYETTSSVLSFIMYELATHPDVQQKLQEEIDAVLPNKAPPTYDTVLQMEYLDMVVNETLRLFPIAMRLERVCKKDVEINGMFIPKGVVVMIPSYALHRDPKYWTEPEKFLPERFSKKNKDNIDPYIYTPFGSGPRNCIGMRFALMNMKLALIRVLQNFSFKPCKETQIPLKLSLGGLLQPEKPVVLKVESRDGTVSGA

Consider `O=c1c2ccccc2oc2c(Cc3ccc4c(c3)OCO4)[nH]c(-c3nccs3)c12`, for which the inhibition result in the data set on Rattus norvegicus [1] was “Active”. Further, in [2], the AUC(0-inf) – broadly, the area under the concentration-time curve extrapolated to infinity – was determined as 2030 ng·h/mL. The half-inhibitory concentration (IC50) (commonly the midpoint of a concentration-inhibition curve) is 2770 nM in data set [3]; over 25000 nM at Cytochrome P450 2C8; over 25000 nM on Cytochrome P450 3A4; 362 nM in [10]; 58 nM in data set [12]. Also, in data set [4], the AUC(0-t) (commonly the area under the concentration-time curve up to a stated or last time point) was found to be 2000 ng·h/mL. For the same molecule, the half-life (usually the time needed for the level to fall by half in the phase considered) in data set [5] is 5.17 h. For the same molecule, the Cmax (in general, the highest concentration seen after dosing) in [6] was found to be 2360 ng/mL. Moreover, the Activity entry in the data set on Rattus norvegicus [7] and in the data set on Rattus norvegicus [9] was “Non-Toxic” throughout. The molecule further showed a half-life at 0.5 µM in data set [8] of 0.412 h. Moreover, in [11], the CLhep predicted at 0.5 µM is 35.6 mL/min/kg.

The record behind these values is ChEMBL document CHEMBL4011656, “Discovery and Optimization of Chromeno[2,3-c]pyrrol-9(2H)-ones as Novel Selective and Orally Bioavailable Phosphodiesterase 5 Inhibitors for the Treatment of Pulmonary Arterial Hypertension” (J Med Chem, 2017).
